Reference: ChEMBL document CHEMBL6092166, “Design, synthesis and enzymatic inhibition evaluation of novel 4-hydroxy Pd-C-Ⅲ derivatives as α-glucosidase and PTP1B dual-target inhibitors” (Eur J Med Chem, 2024)
Active and inactive are the calls of the source. The calls are words filed in the database; no cut-off is given here.

Assays:
[1] = target: T1, Tyrosine-protein phosphatase non-receptor type 1 (Homo sapiens, UniProt P18031); test: Inhibition of PTP1B (unknown origin) using pNPP as substrate preincubated for 10 mins followed by substrate addition for 20 mins by absorbance based analysis
T1 sequence (P18031 whole entry): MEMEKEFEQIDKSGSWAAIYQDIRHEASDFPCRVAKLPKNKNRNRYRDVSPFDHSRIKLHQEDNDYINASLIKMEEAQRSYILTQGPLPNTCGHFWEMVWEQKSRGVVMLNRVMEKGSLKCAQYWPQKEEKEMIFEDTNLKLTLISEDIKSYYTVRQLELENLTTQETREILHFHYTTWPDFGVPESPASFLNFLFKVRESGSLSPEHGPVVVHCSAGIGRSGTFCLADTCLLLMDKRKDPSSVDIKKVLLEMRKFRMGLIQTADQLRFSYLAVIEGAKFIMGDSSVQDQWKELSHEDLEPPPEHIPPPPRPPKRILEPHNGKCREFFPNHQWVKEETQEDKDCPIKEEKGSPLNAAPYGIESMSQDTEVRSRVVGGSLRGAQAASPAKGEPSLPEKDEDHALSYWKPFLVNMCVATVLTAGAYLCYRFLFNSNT

Alpha glucosidase [2] = target: T2, Alpha glucosidase (Homo sapiens, UniProt O43451+P10253+P14410+Q2M2H8); test: Inhibition of alpha-glucosidase (unknown origin) using p-NPG as substrate incubated for 15 mins by spectrophotometric analysis; format: protein assay
Alpha glucosidase [3] = target: T2, Alpha glucosidase; test: Inhibition of alpha-glucosidase (unknown origin) using p-NPG as substrate preincubated for 15 mins followed by substrate addition for 30 mins by absorbance based analysis; format: protein assay
Mus musculus [4] = test: Reduction in blood glucose concentration in male Kunming mouse at 20 mg/kg preadministered for 40 mins and measured after 120 mins by sucrose loading test; format: functional, organism-based
Mus musculus [5] = test: Reduction in blood glucose concentration in male Kunming mouse assessed as decrease in glucose AUC at 20 mg/kg preadministered for 40 mins and measured after 120 mins by sucrose loading test relative to control; format: functional, organism-based
[6] = Inhibition of alpha-amylase (unknown origin); set-up: species or system Homo sapiens

O=C(O)c1cc2ccc(=O)oc2cc1O
IC50 [1]: 8 µM
IC50 (Alpha glucosidase [2]): 172.1 µM

CC(C)=CC(=O)O[C@@H]1c2cc3ccc(=O)oc3cc2OC(C)(C)[C@H]1OC(=O)C=C(C)C
IC50 [1]: 11.2 µM
IC50 (Alpha glucosidase [2]): 79.1 µM

O=C(/C=C/c1ccc(Br)cc1)OCCOc1ccc2ccc(=O)oc2c1
IC50 (Alpha glucosidase [3]): 263.2 µM

O=C(/C=C/c1ccc(Cl)cc1)OCCOc1ccc2ccc(=O)oc2c1
IC50 (Alpha glucosidase [3]): 283.2 µM

CO[C@@H]1c2cc3ccc(=O)oc3cc2OC(C)(C)[C@H]1OC(=O)C=C(C)C
IC50 [1]: 6.6 µM
IC50 (Alpha glucosidase [2]): 89.2 µM

O=C(/C=C/c1cccc(C(F)(F)F)c1)OCCOc1ccc2ccc(=O)oc2c1
IC50 (Alpha glucosidase [3]): > 300 µM

Cc1cc(OCCOC(=O)/C=C/c2ccc(Cl)cc2Cl)cc2oc(=O)cc(C)c12
IC50 (Alpha glucosidase [3]): 124.1 µM

COc1ccc(/C=C/C(=O)OCCOc2ccc3ccc(=O)oc3c2)cc1OC
IC50 (Alpha glucosidase [3]): > 300 µM

O=C(OCCOc1ccc2ccc(=O)oc2c1)c1ccc(Cl)cc1Cl
IC50 (Alpha glucosidase [3]): 99 µM

O=C(OCCCOc1ccc2ccc(=O)oc2c1)c1ccc(Cl)cc1Cl
IC50 (Alpha glucosidase [3]): > 300 µM

COc1cc(/C=C/C(=O)OCCOc2ccc3ccc(=O)oc3c2)ccc1O
IC50 (Alpha glucosidase [3]): > 300 µM

CCCc1cc(=O)oc2cc(OCCOC(=O)/C=C/c3ccc(Cl)cc3Cl)ccc12
IC50 (Alpha glucosidase [3]): > 300 µM

O=C(/C=C/c1ccc(Cl)cc1Cl)OCCCOc1ccc2ccc(=O)oc2c1
IC50 (Alpha glucosidase [3]): > 300 µM

C[C@H]1O[C@H](O[C@H]2[C@H](O)[C@@H](O)[C@@H](O[C@H]3[C@H](O)[C@@H](O)C(O)O[C@@H]3CO)O[C@@H]2CO)[C@H](O)[C@@H](O)[C@@H]1N[C@H]1C=C(CO)[C@@H](O)[C@H](O)[C@H]1O (some centres not stated) [ACARBOSE]
Activity (Mus musculus [4]): Active
Activity (Mus musculus [5]): Active
IC50 [6]: 17.8 µM

CCN(CC)c1ccc(/C=C/C(=O)OCCOc2ccc3ccc(=O)oc3c2)cc1
IC50 (Alpha glucosidase [3]): > 300 µM

C/C=C\C(=O)O[C@H]1[C@H](O)c2cc3ccc(=O)oc3cc2OC1(C)C
IC50 [1]: 5.4 µM
IC50 (Alpha glucosidase [2]): 77.3 µM
